# Assay results: US4115065A, “Saturation analysis of folate compound with selenium-75 labeled folate” (The Radiochemical Centre Limited, priority 1973, dated 1978)
# Several values for one entry are separate records, joined by “and”; a condition that tells them apart may be missing. Equal entries are not always repeated.
# Legend:
# [1] = tested on: rabbit anti folic acid antiserum; assay: Example 13: radioimmunoassay for folic acid, Se75 pteroyl-L-selenomethionine label; format: binding; conditions: 0.5 ng label
# Description: (§1) Standard solutions of folic acid containing 0, 0.25, 0.5, 1, 2 and 4 ng in phosphate-albumin buffer (200 μl) were pipetted into assay tubes. Buffer was also added to `total` and `blank` tubes (400 and 300 μl respectively). To each tube was added Se75-pteroyl-L-methylselenocysteine (0.5 ng, sp. act. ca 0.24 Ci/m.mole) in 100 μl of buffer. Immediately afterwards was added, to all tubes except the blanks, 100 μl of buffer containing 2 μl of a 1/15000 titre rabbit anti folic acid antiserum, raised against a conjugate of folic acid with serum albumin.
# (§2) After 60 minutes incubation at room temperature, a suspension of albumin-coated charcoal in buffer (200 μl) was added at 4° C. to all tubes except the totals. The tubes were centrifuged (2000g for 10 minutes) and the supernate was counted for 300 seconds.
# The protocol of example 12 was used except that Se75-pteroyl-L-selenomethionine (0.5ng, sp. act. ca 2.25 Ci/m.mole) was substituted for Se-75-pteroyl-L-methylselenocysteine as label
# [2] = tested on: porcine serum as binding protein; assay: Example 7: saturation assay, Se75 pteroyl-L-selenomethionine label, N5-methyltetrahydrofolate standards, porcine serum binder; conditions: 0.5 ng label, porcine serum 30 μl
# Description: (§3) Standard solutions of N^5 -methyltetrahydrofoate containing 0, 0.25, 0.5, 1, 2 and 4 ng in phosphate-albumin buffer (200 μl) were pipetted in assay tubes. Buffer was also added to `total` and `blank` tubes (400 and 300 μl respectively). To each tube was added pteroyl-L-methylselenocysteine-Se75 (0.5 ng, sp. act. ca 0.24 Ci/m.mole) in 100 μl of buffer. Immediately afterwards β-lactoglobulin (100 μg) in 100 μl of buffer was added to all tubes except the blanks. After 60 minutes incubation at room temperature, a suspension of albumin-coated charcoal in buffer (200 μl) was added at 4° C. to all tubes except the totals. The tubes were centrifuged (2000g for 10 minutes) and the supernate was counted for 300 seconds in an NE8312 beta-gamma counter.
# (§4) Results are expressed in terms of [formula]
# (§5) The protocol of example 4 was used except that Se75-pteroyl-L-selenomethionine (0.5ng, sp. act. ca 2.25 Ci/m.mole) was substituted as label for Se75-pteroyl-L-methylselenocysteine.
# The protocol of example 6 was used except that a solution of porcine serum (30 μl) in buffer (70 μl) was substituted for β-lactoglobulin as binding protein.
# [3] = tested on: porcine serum as binding protein; assay: Example 11: saturation assay, Se75 pteroyl-L-selenomethionine label, folic acid standards, porcine serum binder; conditions: 0.5 ng label, porcine serum 30 μl
# Description: as §3, §4, §5
# The protocol of example 6 was used except that folic acid was substituted for N^5 -methyltetrahydrofolate as standard.
# The protocol of example 10 was used except that a solution containing 30 μl of porcine serum and 70 μl of buffer was substituted for β-lactoglobulin as binding protein.
# β-lactoglobulin [4] = biological target: T1, β-lactoglobulin (Bos taurus, UniProt P02702); assay: Example 6: saturation assay, Se75 pteroyl-L-selenomethionine label, N5-methyltetrahydrofolate standards; format: binding; conditions: 0.5 ng label
# Description: as §3, §4, §5
# Target sequence in this assay (P02702 20-234 limits assumed): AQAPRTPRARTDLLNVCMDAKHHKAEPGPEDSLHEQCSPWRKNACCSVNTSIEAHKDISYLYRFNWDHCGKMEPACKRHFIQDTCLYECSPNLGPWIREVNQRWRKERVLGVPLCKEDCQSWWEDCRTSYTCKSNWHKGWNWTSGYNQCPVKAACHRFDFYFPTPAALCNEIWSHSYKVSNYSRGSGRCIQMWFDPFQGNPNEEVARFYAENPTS
# [5] = tested on: porcine serum as binding protein; assay: Example 8: saturation assay, Se75 pteroyl-L-methylselenocysteine label, N5-methyltetrahydrofolate standards, porcine serum binder; conditions: 0.5 ng label, porcine serum 30 μl
# Description: as §3, §4
# (§6) The protocol of example 4 was used except that a solution (100 μl) containing 30 μl of porcine serum and 70 μl of buffer was used instead of β-lactoglobulin as binding protein.
# β-lactoglobulin [6] = biological target: T1, β-lactoglobulin; assay: Example 5: saturation assay, Se75 pteroyl-L-methylselenocysteine label, folic acid standards; format: binding; conditions: 0.5 ng label, β-lactoglobulin 100 μg
# Description: as §3, §4
# Target sequence in this assay (P02702 20-241): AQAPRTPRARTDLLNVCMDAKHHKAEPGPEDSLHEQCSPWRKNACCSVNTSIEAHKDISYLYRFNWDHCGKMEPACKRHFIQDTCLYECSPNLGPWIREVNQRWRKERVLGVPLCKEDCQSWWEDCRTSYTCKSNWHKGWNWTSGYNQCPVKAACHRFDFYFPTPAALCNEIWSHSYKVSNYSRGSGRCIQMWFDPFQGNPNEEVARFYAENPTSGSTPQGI
# The protocol of example 4 was used except that folic acid was used as the standard instead of N^5 -methyltetrhydrofolate
# [7] = tested on: rabbit anti folic acid antiserum; assay: Example 12: radioimmunoassay for folic acid, Se75 pteroyl-L-methylselenocysteine label; format: binding; conditions: 0.5 ng label, 2 μl rabbit anti folic acid antiserum
# Description: as §1, §2
# β-lactoglobulin [8] = biological target: T1, β-lactoglobulin; assay: Example 4: saturation assay for folates, Se75 pteroyl-L-methylselenocysteine label, N5-methyltetrahydrofolate standards; format: binding; conditions: 0.5 ng label, β-lactoglobulin 100 μg
# Description: as §3, §4
# Target sequence in this assay (P02702 20-234 limits assumed): as the sequence (P02702 20-234 limits assumed) above
# [9] = tested on: porcine serum as binding protein; assay: Example 9: saturation assay, Se75 pteroyl-L-methylselenocysteine label, folic acid standards, porcine serum binder; conditions: 0.5 ng label, porcine serum 30 μl
# Description: as §3, §4, §6
# The protocol of example 8 was used except that folic acid was substituted for N^5 -methyltetrahydrofolate as standard
# [10] = 0.25 ng N5 methyltetrahydrofolate
# [11] = 0.5 ng N5 methyltetrahydrofolate
structure (smiles),measurement,setting,value
"C[75Se]CC[C@H](NC(=O)c1ccc(NCc2cnc3nc(N)[nH]c(=O)c3n2)cc1)C(=O)O [Se75-pteroyl-L-selenomethionine, N-Pteroyl-L-selenomethionine-Se75]",Percent of labelled folate bound,[1]; 0 ng folic acid,42.2%
same,Percent of labelled folate bound,[1]; 0.25 ng folic acid,25.7% and 27.6%
same,Percent of labelled folate bound,[1]; 0.5 ng folic acid,22.1% and 19%
same,Percent of labelled folate bound,[1]; 1 ng folic acid,20.8% and 21.9%
same,Percent of labelled folate bound,[1]; 2 ng folic acid,16.7% and 15.5%
same,Percent of labelled folate bound,[1]; 4 ng folic acid,16% and 13.7%
same,Percent of labelled folate bound,[2]; 0 mg N5 methyltetrahydrofolate,36.4%
same,Percent of labelled folate bound,[2]; 4 ng N5 methyltetrahydrofolate,15.5% and 15.6%
same,Percent of labelled folate bound,[2]; 0.25 mg N5 methyltetrahydrofolate,21.3%
same,Percent of labelled folate bound,[2]; 0.5 mg N5 methyltetrahydrofolate,17.2% and 17.1%
same,Percent of labelled folate bound,[2]; 1 mg N5 methyltetrahydrofolate,20.7% and 18.5%
same,Percent of labelled folate bound,[2]; 2 mg N5 methyltetrahydrofolate,19.3% and 17.2%
same,Percent of labelled folate bound,[3]; 0 ng folic acid,35.7%
same,Percent of labelled folate bound,[3]; 0.25 ng folic acid,20.3% and 21.1%
same,Percent of labelled folate bound,[3]; 0.5 ng folic acid,18.4% and 20.9%
same,Percent of labelled folate bound,[3]; 1 ng folic acid,16.8% and 17.3%
same,Percent of labelled folate bound,[3]; 2 ng folic acid,13.0% and 13.9%
same,Percent of labelled folate bound,[3]; 4 ng folic acid,12.6% and 15.2%
same,Percent of labelled folate bound,β-lactoglobulin [4]; 0 ng N5 methyltetrahydrofolate,49.9%
same,Percent of labelled folate bound,β-lactoglobulin [4]; [10],39.3% and 36.1%
same,Percent of labelled folate bound,β-lactoglobulin [4]; [11],35.9% and 37.3%
same,Percent of labelled folate bound,β-lactoglobulin [4]; 1 ng N5 methyltetrahydrofolate,32.6% and 33.0%
same,Percent of labelled folate bound,β-lactoglobulin [4]; 2 ng N5 methyltetrahydrofolate,25.9%
same,Percent of labelled folate bound,β-lactoglobulin [4]; 4 ng N5 methyltetrahydrofolate,25.4% and 24.1%
"C[75Se]C[C@H](NC(=O)c1ccc(NCc2cnc3nc(N)[nH]c(=O)c3n2)cc1)C(=O)O [pteroyl-L-methylselenocysteine-Se75, N-Pteroyl-Se-methyl-L-selenocysteine-Se75]",Percent of labelled folate bound,[5]; 0 ng N5 methyltetrahydrofolate,89.3%
same,Percent of labelled folate bound,[5]; [10],61.4% and 52.0%
same,Percent of labelled folate bound,[5]; [11],43.3% and 48.1%
same,Percent of labelled folate bound,[5]; 1 ng N5 methyltetrahydrofolate,41.2% and 38.9%
same,Percent of labelled folate bound,[5]; 2 ng N5 methyltetrahydrofolate,40.9% and 39.3%
same,Percent of labelled folate bound,[5]; 4 ng N5 methyltetrahydrofolate,34.5% and 31.0%
same,percentage of labelled folate bound,β-lactoglobulin [6]; 0 ng folic acid,95.5%
same,percentage of labelled folate bound,β-lactoglobulin [6]; 0.25 ng folic acid,86.1% and 85.6%
same,percentage of labelled folate bound,β-lactoglobulin [6]; 0.5 ng folic acid,67.7% and 82.5%
same,percentage of labelled folate bound,β-lactoglobulin [6]; 1 ng folic acid,45.5% and 41.4%
same,percentage of labelled folate bound,β-lactoglobulin [6]; 2 ng folic acid,28.1% and 32.6%
same,percentage of labelled folate bound,β-lactoglobulin [6]; 4 ng folic acid,10.4%
same,Percent of labelled folate bound to antiserum,[7]; 0 ng folic acid,97.6%
same,Percent of labelled folate bound to antiserum,"[7]; 0.25 ng folic acid, listed as Se75-pteroyl-L-methylselenocysteine",72.4% and 90.9%
same,Percent of labelled folate bound to antiserum,"[7]; 0.5 ng folic acid, listed as Se75-pteroyl-L-methylselenocysteine",52.5% and 70.3%
same,Percent of labelled folate bound to antiserum,"[7]; 1 ng folic acid, listed as Se75-pteroyl-L-methylselenocysteine",50.1% and 35.3%
same,Percent of labelled folate bound to antiserum,"[7]; 2 ng folic acid, listed as Se75-pteroyl-L-methylselenocysteine",20.1% and 29.6%
same,Percent of labelled folate bound to antiserum,"[7]; 4 ng folic acid, listed as Se75-pteroyl-L-methylselenocysteine",20.1% and 12.8%
same,percentage of labelled folate bound,"β-lactoglobulin [8]; 0 ng N5 methyltetrahydrofolate, 60 minutes room temperature",94%
same,percentage of labelled folate bound,β-lactoglobulin [8]; [10],81.8% and 78.0%
same,percentage of labelled folate bound,β-lactoglobulin [8]; [11],81.4%
same,percentage of labelled folate bound,β-lactoglobulin [8]; 1 ng N5 methyltetrahydrofolate,78.3% and 78.6%
same,percentage of labelled folate bound,β-lactoglobulin [8]; 2 ng N5 methyltetrahydrofolate,51.3% and 58.0%
same,percentage of labelled folate bound,β-lactoglobulin [8]; 4 ng N5 methyltetrahydrofolate,44.4% and 34.1%
same,Percent of labelled folic acid bound to porcine serum,[9]; 0 ng folic acid,92.7%
same,Percent of labelled folic acid bound to porcine serum,[9]; 0.25 ng folic acid,67.1% and 68.7%
same,Percent of labelled folic acid bound to porcine serum,[9]; 0.5 ng folic acid,60.9% and 43%
same,Percent of labelled folic acid bound to porcine serum,[9]; 1 ng folic acid,26.2% and 31.3%
same,Percent of labelled folic acid bound to porcine serum,[9]; 2 ng folic acid,28.0% and 28.3%
same,Percent of labelled folic acid bound to porcine serum,[9]; 4 ng folic acid,9% and 2.6%
